Assay results taken from ChEMBL document CHEMBL1201862, “PubChem BioAssay data set” (2004).
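48-hour exposure; five concentrations; linearly interpolated endpoints. At the GI50, growth is halved.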 Active and inactive are the calls of the source. Cut-off read from the data, not from the text of the source: active = GI50 up to about 1.1 µM and inactive = higher.

Assays:
Test in all cases: DTP human tumour cell line panel, 48 h
HT-29 = test system: HT-29
HOP-62 = test system: HOP-62
OVCAR-4 = test system: OVCAR-4
RXF 393 = test system: RXF 393
NCI-H460 = test system: NCI-H460
MDA-MB-231 = test system: MDA-MB-231
HL-60 = test system: HL-60
HCT-116 = test system: HCT-116
NCI-H226 = test system: NCI-H226
SK-MEL-5 = test system: SK-MEL-5
UO-31 = test system: UO-31
K562 = test system: K562
SR = test system: SR
SN12C = test system: SN12C
HOP-92 = test system: HOP-92
PC-3 = test system: PC-3
CCRF-CEM = test system: CCRF-CEM
HCT-15 = test system: HCT-15
EKVX = test system: EKVX
ACHN = test system: ACHN
CAKI-1 = test system: CAKI-1
M14 = test system: M14
MCF7 = test system: MCF7
MDA-MB-435 = test system: MDA-MB-435
BT-549 = test system: BT-549
UACC-62 = test system: UACC-62
RPMI-8226 = test system: RPMI-8226
A498 = test system: A498
DU-145 = test system: DU-145
A549 = test system: A549
SF-539 = test system: SF-539
T47D = test system: T47D
SW-620 = test system: SW-620
OVCAR-8 = test system: OVCAR-8
786-0 = test system: 786-0
LOX IMVI = test system: LOX IMVI
U-251 = test system: U-251
KM12 = test system: KM12
OVCAR-5 = test system: OVCAR-5
UACC-257 = test system: UACC-257
MDA-N = test system: MDA-N
SNB-19 = test system: SNB-19
NCI-H23 = test system: NCI-H23
IGROV-1 = test system: IGROV-1
NCI/ADR-RES = test system: NCI/ADR-RES
MOLT-4 = test system: MOLT-4
SK-MEL-2 = test system: SK-MEL-2
OVCAR-3 = test system: OVCAR-3
HCC 2998 = test system: HCC 2998
SF-295 = test system: SF-295
SK-OV-3 = test system: SK-OV-3
COLO 205 = test system: COLO 205
TK-10 = test system: TK-10
SNB-75 = test system: SNB-75
SK-MEL-28 = test system: SK-MEL-28
Malme-3M = test system: Malme-3M
SF-268 = test system: SF-268

COC(=O)C1(c2cc3ccccc3n2S(=O)(=O)c2ccccc2)CC2C=CC1NC2 (stereo not drawn)
GI50 (HT-29): 1.79 µM (inactive) | GI50 (HOP-62): 1.66 µM (inactive) | GI50 (OVCAR-4): 1.98 µM (inactive) | GI50 (RXF 393): 1.76 µM (inactive) | GI50 (NCI-H460): 3.11 µM (inactive) | GI50 (MDA-MB-231): 1.79 µM (inactive) | GI50 (HL-60): 1.94 µM (inactive) | GI50 (HCT-116): 2.23 µM (inactive) | GI50 (NCI-H226): 8.97 µM (inactive) | GI50 (SK-MEL-5): 6.12 µM (inactive) | GI50 (UO-31): 1.48 µM (inactive) | GI50 (K562): 1.77 µM (inactive) | GI50 (SR): 0.216 µM (active) | GI50 (SN12C): 2.08 µM (inactive) | GI50 (HOP-92): 1.52 µM (inactive) | GI50 (PC-3): 1.61 µM (inactive) | GI50 (CCRF-CEM): 0.735 µM (active) | GI50 (HCT-15): 1.75 µM | GI50 (EKVX): 4.03 µM (inactive) | GI50 (ACHN): 1.84 µM (inactive) | GI50 (CAKI-1): 1.82 µM (inactive) | GI50 (M14): 1.79 µM (inactive) | GI50 (MCF7): 1.5 µM (inactive) | GI50 (MDA-MB-435): 1.63 µM (inactive) | GI50 (BT-549): 2.36 µM (inactive) | GI50 (UACC-62): 1.62 µM (inactive) | GI50 (RPMI-8226): 0.933 µM (active) | GI50 (A498): 3.09 µM (inactive) | GI50 (DU-145): 2.4 µM (inactive) | GI50 (A549): 2.96 µM (inactive) | GI50 (SF-539): 1.95 µM (inactive) | GI50 (T47D): 3.24 µM (inactive) | GI50 (SW-620): 2.91 µM (inactive) | GI50 (OVCAR-8): 1.95 µM (inactive) | GI50 (786-0): 1.94 µM (inactive) | GI50 (LOX IMVI): 1.74 µM (inactive) | GI50 (U-251): 1.43 µM (inactive) | GI50 (KM12): 2.47 µM (inactive) | GI50 (OVCAR-5): 2.25 µM (inactive) | GI50 (UACC-257): 2.22 µM (inactive) | GI50 (MDA-N): 2.13 µM (inactive) | GI50 (SNB-19): 2.2 µM (inactive) | GI50 (NCI-H23): 2.18 µM (inactive) | GI50 (IGROV-1): 1.34 µM (inactive) | GI50 (NCI/ADR-RES): 2.42 µM (inactive) | GI50 (MOLT-4): 1.62 µM (inactive) | GI50 (SK-MEL-2): 1.77 µM (inactive) | GI50 (OVCAR-3): 2.29 µM (inactive) | GI50 (HCC 2998): 1.98 µM (inactive) | GI50 (SF-295): 2.91 µM (inactive) | GI50 (SK-OV-3): 3.41 µM (inactive) | GI50 (COLO 205): 2.17 µM (inactive) | GI50 (TK-10): 2.28 µM (inactive) | GI50 (SNB-75): 3.8 µM (inactive) | GI50 (SK-MEL-28): 2.67 µM (inactive)

CS(=O)(=O)OCCn1c(=O)n(CCOS(C)(=O)=O)c(=O)n(CCOS(C)(=O)=O)c1=O
GI50 (Malme-3M): > 100 µM (inactive) | GI50 (HT-29): > 100 µM (inactive) | GI50 (HOP-62): > 100 µM (inactive) | GI50 (OVCAR-4): > 100 µM (inactive) | GI50 (RXF 393): > 100 µM (inactive) | GI50 (NCI-H460): > 100 µM (inactive) | GI50 (MDA-MB-231): > 100 µM (inactive) | GI50 (HL-60): > 100 µM (inactive) | GI50 (HCT-116): > 100 µM (inactive) | GI50 (NCI-H226): > 100 µM (inactive) | GI50 (SK-MEL-5): > 100 µM (inactive) | GI50 (UO-31): > 100 µM (inactive) | GI50 (K562): > 100 µM (inactive) | GI50 (SR): > 100 µM (inactive) | GI50 (SN12C): > 100 µM (inactive) | GI50 (CCRF-CEM): > 100 µM (inactive) | GI50 (HCT-15): > 100 µM | GI50 (EKVX): > 100 µM (inactive) | GI50 (ACHN): > 100 µM (inactive) | GI50 (CAKI-1): > 100 µM (inactive) | GI50 (MCF7): > 100 µM (inactive) | GI50 (SF-268): > 100 µM (inactive) | GI50 (MDA-MB-435): > 100 µM (inactive) | GI50 (BT-549): > 100 µM (inactive) | GI50 (UACC-62): > 100 µM (inactive) | GI50 (RPMI-8226): > 100 µM (inactive) | GI50 (A498): > 100 µM (inactive) | GI50 (DU-145): > 100 µM (inactive) | GI50 (A549): > 100 µM (inactive) | GI50 (SF-539): > 100 µM (inactive) | GI50 (T47D): > 100 µM (inactive) | GI50 (SW-620): > 100 µM (inactive) | GI50 (OVCAR-8): > 100 µM (inactive) | GI50 (786-0): > 100 µM (inactive) | GI50 (LOX IMVI): 36.3 µM (inactive) | GI50 (U-251): > 100 µM (inactive) | GI50 (KM12): > 100 µM (inactive) | GI50 (OVCAR-5): > 100 µM (inactive) | GI50 (UACC-257): > 100 µM (inactive) | GI50 (MDA-N): > 100 µM (inactive) | GI50 (SNB-19): > 100 µM (inactive) | GI50 (NCI-H23): > 100 µM (inactive) | GI50 (IGROV-1): > 100 µM (inactive) | GI50 (NCI/ADR-RES): > 100 µM (inactive) | GI50 (MOLT-4): > 100 µM (inactive) | GI50 (OVCAR-3): > 100 µM (inactive) | GI50 (HCC 2998): > 100 µM (inactive) | GI50 (SF-295): > 100 µM (inactive) | GI50 (SK-OV-3): > 100 µM (inactive) | GI50 (COLO 205): > 100 µM (inactive) | GI50 (TK-10): > 100 µM (inactive) | GI50 (SNB-75): > 100 µM (inactive) | GI50 (SK-MEL-28): > 100 µM (inactive)
